Experimental data as given in PMC9516332 (Frontiers in Oncology, 2022).
Where two headings read alike, the source gives them in different places.

What was measured:
134 cancer cell lines = assay: Cell viability assay (ATPlite, 72 hours), IC50 on cancer cell line panel
AP-1060 (ETV6-NTRK3) = assay: Cell viability assay; details: read-out: IC50 in cell proliferation assay

**Q.** Which results are given for `COC(=O)N[C@@H](C)CNc1nccc(-c2cn(C(C)C)nc2-c2cc(Cl)cc(NS(C)(=O)=O)c2F)n1` [encorafenib]?
**A.** IC50 (134 cancer cell lines; Homo sapiens, MOLT-4, read-out: IC50 in cell proliferation assay, MOLT-4 cell line): 1670 nM; IC50 (134 cancer cell lines; Homo sapiens, MV4-11, read-out: IC50 in cell proliferation assay, MV4-11 cell line (FLT3 ITD)): 2280 nM; IC50 (134 cancer cell lines; Homo sapiens, MeWo, read-out: IC50 in cell proliferation assay, MeWo cell line): 1000 nM; IC50 (134 cancer cell lines; Homo sapiens, NCCIT, read-out: IC50 in cell proliferation assay, NCC-IT cell line): 1040 nM; IC50 (134 cancer cell lines; Homo sapiens, NCI-H82, read-out: IC50 in cell proliferation assay, cell line NCI-H82): 1070 nM; IC50 (134 cancer cell lines; Homo sapiens, NCI-H460, read-out: IC50 in cell proliferation assay, NCI-H460 cell line): 1160 nM; IC50 (134 cancer cell lines; Homo sapiens, NCI-H661, read-out: IC50 in cell proliferation assay, NCI-H661 cell line): 821 nM; IC50 (134 cancer cell lines; Homo sapiens, NCI-H716, read-out: IC50 in cell proliferation assay, cell line NCI-H716 (FGFR2-COL14A1)): 9560 nM; IC50 (134 cancer cell lines; Homo sapiens, NCI-H1650, read-out: IC50 in cell proliferation assay, NCI-H1650 cell line (EGFR exon19del)): > 31600 nM; IC50 (134 cancer cell lines; Homo sapiens, NCI-H1975, read-out: IC50 in cell proliferation assay, NCI-H1975 cell line (EGFR p.L858R + p.T790M)): 1440 nM; IC50 (134 cancer cell lines; Homo sapiens, NCI-H2228, read-out: IC50 in cell proliferation assay, NCI-H2228 cell line (EML4-ALK)): 2300 nM; IC50 (134 cancer cell lines; Homo sapiens, OVCAR-3, read-out: IC50 in cell proliferation assay, cell line OVCAR-3): 695 nM; IC50 (134 cancer cell lines; Homo sapiens, PFSK-1, read-out: IC50 in cell proliferation assay, cell line PFSK-1): 1000 nM; IC50 (134 cancer cell lines; Homo sapiens, RL95-2, read-out: IC50 in cell proliferation assay, cell line RL95-2 (EGFR p.A289V)): 924 nM; IC50 (134 cancer cell lines; Homo sapiens, RPMI-7951, read-out: IC50 in cell proliferation assay, cell line RPMI-7951 (BRAF p.V600E)): 13 nM; IC50 (134 cancer cell lines; Homo sapiens, RS4-11, read-out: IC50 in cell proliferation assay, cell line RS4;11): 925 nM; IC50 (134 cancer cell lines; Homo sapiens, Rec1, read-out: IC50 in cell proliferation assay, cell line REC-1): 8530 nM; IC50 (134 cancer cell lines; Homo sapiens, SHP77, read-out: IC50 in cell proliferation assay, cell line SHP-77): > 31600 nM; IC50 (134 cancer cell lines; Homo sapiens, SK-BR-3, read-out: IC50 in cell proliferation assay, cell line SK-BR-3 (ERBB2 amplification)): > 31600 nM; IC50 (134 cancer cell lines; Homo sapiens, SK-N-AS, read-out: IC50 in cell proliferation assay, cell line SK-N-AS): 1110 nM; IC50 (134 cancer cell lines; Homo sapiens, SK-N-FI, read-out: IC50 in cell proliferation assay, cell line SK-N-FI): 3280 nM; IC50 (134 cancer cell lines; Homo sapiens, SK-N-MC, read-out: IC50 in cell proliferation assay, cell line SK-N-MC): 976 nM; IC50 (134 cancer cell lines; Homo sapiens, SK-N-SH, read-out: IC50 in cell proliferation assay, cell line SK-N-SH (ALK p.F1174L)): 1110 nM; IC50 (134 cancer cell lines; Homo sapiens, SNU-5, read-out: IC50 in cell proliferation assay, cell line SNU-5 (MET amplification)): 7360 nM; IC50 (134 cancer cell lines; Homo sapiens, SNU-16, read-out: IC50 in cell proliferation assay, cell line SNU-16 (FGFR2 amplification)): 1750 nM; IC50 (134 cancer cell lines; Homo sapiens, SNU-C2B, read-out: IC50 in cell proliferation assay, cell line SNU-C2B (EGFR p.R165Q)): 9590 nM; IC50 (134 cancer cell lines; Homo sapiens, SU-DHL-1, read-out: IC50 in cell proliferation assay, cell line SU-DHL-1 (NPM1-ALK)): 2150 nM; IC50 (134 cancer cell lines; Homo sapiens, SU-DHL-6, read-out: IC50 in cell proliferation assay, cell line SU-DHL-6): 5810 nM; IC50 (134 cancer cell lines; Homo sapiens, SUP-T1, read-out: IC50 in cell proliferation assay, cell line SUP-T1): > 31600 nM; IC50 (134 cancer cell lines; Homo sapiens, SW48, read-out: IC50 in cell proliferation assay, cell line SW48 (EGFR p.G719S)): 2230 nM; IC50 (134 cancer cell lines; Homo sapiens, SW480, read-out: IC50 in cell proliferation assay, cell line SW480): 1220 nM; IC50 (134 cancer cell lines; Homo sapiens, SW626, read-out: IC50 in cell proliferation assay, cell line SW626): 2440 nM; IC50 (134 cancer cell lines; Homo sapiens, SW780, read-out: IC50 in cell proliferation assay, cell line SW780 (FGFR3-BAIAP2L1)): 19800 nM; IC50 (134 cancer cell lines; Homo sapiens, SW837, read-out: IC50 in cell proliferation assay, cell line SW837): > 31600 nM; IC50 (134 cancer cell lines; Homo sapiens, SW872, read-out: IC50 in cell proliferation assay, cell line SW872 (BRAF p.V600E)): 7 nM; IC50 (134 cancer cell lines; Homo sapiens, SW900, read-out: IC50 in cell proliferation assay, cell line SW900): 1390 nM; IC50 (134 cancer cell lines; Homo sapiens, SW948, read-out: IC50 in cell proliferation assay, cell line SW948): 3230 nM; IC50 (134 cancer cell lines; Homo sapiens, SW982, read-out: IC50 in cell proliferation assay, cell line SW982 (BRAF p.V600E)): 549 nM; IC50 (134 cancer cell lines; Homo sapiens, SW-620, read-out: IC50 in cell proliferation assay, cell line SW620): 1810 nM; IC50 (134 cancer cell lines; Homo sapiens, T98G, read-out: IC50 in cell proliferation assay, cell line T98G): 1670 nM; IC50 (134 cancer cell lines; Homo sapiens, TCC-SUP, read-out: IC50 in cell proliferation assay, cell line TCCSUP): 740 nM; IC50 (134 cancer cell lines; Homo sapiens, THP-1, read-out: IC50 in cell proliferation assay, cell line THP-1): 2460 nM; IC50 (134 cancer cell lines; Homo sapiens, U2OS, read-out: IC50 in cell proliferation assay, cell line U2OS): 1460 nM; IC50 (134 cancer cell lines; Homo sapiens, U-87 MG, read-out: IC50 in cell proliferation assay, cell line U-87MG ATCC): 1050 nM; IC50 (134 cancer cell lines; Homo sapiens, U-118-MG, read-out: IC50 in cell proliferation assay, cell line U-118MG): 1410 nM; IC50 (134 cancer cell lines; Homo sapiens, UMUC3, read-out: IC50 in cell proliferation assay, cell line UM-UC-3): 993 nM; IC50 (134 cancer cell lines; Hs766T, read-out: IC50 in cell proliferation assay, Hs 766T cell line): 1900 nM; IC50 (134 cancer cell lines; L-82, read-out: IC50 in cell proliferation assay, L-82 cell line (NPM1-ALK)): 8750 nM; IC50 (134 cancer cell lines; Rh30, read-out: IC50 in cell proliferation assay, cell line Rh30): 1080 nM; IC50 (134 cancer cell lines; read-out: IC50 in cell proliferation assay, 11-18 cell line (EGFR p.L858R)): > 31600 nM; IC50 (134 cancer cell lines; read-out: IC50 in cell proliferation assay, Hs 852.T cell line): 3370 nM; IC50 (134 cancer cell lines; read-out: IC50 in cell proliferation assay, JAR cell line): 419 nM; IC50 (134 cancer cell lines; read-out: IC50 in cell proliferation assay, cell line 5637): 586 nM; IC50 (134 cancer cell lines; read-out: IC50 in cell proliferation assay, cell line A-388): 2000 nM; IC50 (134 cancer cell lines; read-out: IC50 in cell proliferation assay, cell line DB): 1200 nM; IC50 (134 cancer cell lines; read-out: IC50 in cell proliferation assay, cell line DEL (NPM1-ALK)): 6420 nM; IC50 (134 cancer cell lines; read-out: IC50 in cell proliferation assay, cell line ES-2 (BRAF p.V600E)): 100 nM; IC50 (134 cancer cell lines; read-out: IC50 in cell proliferation assay, cell line PA-1): 841 nM; IC50 (134 cancer cell lines; read-out: IC50 in cell proliferation assay, cell line PC-3): 1370 nM; IC50 (134 cancer cell lines; read-out: IC50 in cell proliferation assay, cell line RD): 1630 nM; IC50 (134 cancer cell lines; read-out: IC50 in cell proliferation assay, cell line RKO (BRAF p.V600E)): 244 nM; IC50 (134 cancer cell lines; read-out: IC50 in cell proliferation assay, cell line RL): 29200 nM; IC50 (134 cancer cell lines; read-out: IC50 in cell proliferation assay, cell line RT-4 (FGFR3-TACC3)): 3770 nM; IC50 (134 cancer cell lines; read-out: IC50 in cell proliferation assay, cell line SR (NPM1-ALK)): 921 nM; IC50 (134 cancer cell lines; read-out: IC50 in cell proliferation assay, cell line T24): 1050 nM; IC50 (134 cancer cell lines; read-out: IC50 in cell proliferation assay, cell line TT (RET p.C634W)): 5090 nM; IC50 (134 cancer cell lines; read-out: IC50 in cell proliferation assay, cell line VA-ES-BJ): 1130 nM; IC50 (AP-1060 (ETV6-NTRK3)): 2520 nM
